Results as given in patent US9320734B2, “Small molecule inhibitors of the pleckstrin homology domain and methods for using same” (Board of Regents, The University of Texas System, priority 2008, dated 2016).
Values after ≈ are worked out from the molar mass of the structure shown.

Key:
[1] = test system: Panc-1 pancreatic cell line; test: Apoptosis, morphological assay, Panc-1 cells; type: cell-based, human; conditions: Panc-1, morphological assay
From the text: (§1) AKT inhibition leads to cellular apoptosis.

[2] = test system: MiaPaca-2 pancreatic cell line; test: Apoptosis, morphological assay, MiaPaCa-2 cells; type: cell-based, human; conditions: MiaPaca-2, morphological assay
From the text: as §1

AKT PH domain = AKT PH domain (Homo sapiens (Human), UniProt P31749); test: SPR spectroscopy direct binding (Biacore 2000); conditions: purified AKT PH domain, SPR (Biacore 2000); NB = not binding
AKT PH domain, sequence (P31749 5-108): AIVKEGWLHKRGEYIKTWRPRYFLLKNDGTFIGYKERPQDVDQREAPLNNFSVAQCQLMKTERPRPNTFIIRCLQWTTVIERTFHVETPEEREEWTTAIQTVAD
Description: (§2) Binding assays using SPR and an ELISA competitive binding assay were used to measure the binding affinity (KD) of the compounds to all three PH domains. SPR was carried out as described above. […] Purified GST-PH domains were incubated with increasing concentrations of the compounds under anylsis for about 4 hours in 0.2 M carbonate buffer pH 9.4 and were added to the 96-well plate and incubated overnight at 4° C. Following incubation, the plate was washed 4 times with phosphate buffered 0.9% NaCl (PBS), blocked with 3% bovine serum albumin (BSA) in PBS and 0.01% Tween for 1 hour, washed again 4 times with PBS and mouse monoclonal anti-glutathione-S-transferase antibody in 3% BSA (1:2000) was added for 1 hr at room temperature with shaking. The plate was washed 4 times with PBS and an anti-mouse IgG horseradish peroxidase coupled antibody (dilution 1:2000 in 3% BSA) was added for 1 hr. After 4 washes with PBS, 2,2′-azinobis[3-ethylbenzothiazoline-6-sulfonic acid]-diammonium salt (ABST) was added and the reaction was allowed to develop for 30 min.

[3] = test system: phospho-Ser473-AKT in Panc-1 cells; test: Cellular AKT inhibition, Western blot phospho-Ser473-AKT, Panc-1 cells; conditions: Homo sapiens, PANC-1, read-out: pAKT inhibition (IC50)
[4] = test system: phospho-Ser473-AKT in MiaPaCa-2 cells; test: Cellular AKT inhibition, Western blot phospho-Ser473-AKT, MiaPaCa-2 cells; conditions: Homo sapiens, MIA PaCa-2, read-out: pAKT inhibition (IC50)
A549 nsc lung cancer = test: Antitumor activity, oral dosing, A549 xenograft; type: in vivo, scid mice; conditions: 200 mg/kg BID × 10 D
HaCat-II,4 cells = test: Apoptosis (PARP cleavage), HaCaT-II,4 cells; type: cell-based, human; conditions: 10 μM
From the text: (§3) Normal morphogenesis and differentiation features of skin keratinocytes are retained in the HaCaT cultures.

PC3 prostate cancer = test: Antitumor activity, oral dosing, PC3 xenograft; type: in vivo, scid mice; conditions: 125 mg/kg BID × 5 D
BxPC-3 pancreatic cancer = test: Antitumor activity, oral dosing, BxPC-3 xenograft; type: in vivo, scid mice; conditions: BxPC-3, oral
[5] = Plasma levels of compound 104 (HPLC); type: in vivo, scid mice; conditions: single 125 mg/kg i.p. dose, between 1 and 6 h
Description: (§4) This observation was tested using pharmacodynamic and pharmacokinetic studies. […]. […] Western blotting was performed as described above. […].

HaCaT cells = test: Apoptosis (PARP cleavage), HaCaT cells; type: cell-based, human; conditions: 10 μM
From the text: as §3

[6] = type: in vivo; conditions: single doses up to 250 mg/kg; preliminary studies
Description: as §4

SKOV-3 ovarian cancer = test: Antitumor activity, oral dosing, SKOV-3 xenograft; type: in vivo, scid mice; conditions: SKOV-3, oral, 250 mg/kg BID × 10 D
MCF-7 breast cancer = test: Antitumor activity, oral dosing, MCF-7 xenograft; type: in vivo, scid mice; conditions: MCF-7, oral
[7] = test system: phospho-Ser473-AKT in BxPC-3; test: Cellular AKT inhibition, Western blot phospho-Ser473-AKT, BxPC-3 cells; type: cell-based, human; conditions: BxPC-3 cells, Western blot
[8] = test system: total AKT in scid mouse skin; test: Topical application, total AKT immunohistochemistry in skin; type: in vivo, scid mice; conditions: 20 mg/ml in 0.1 ml acetone topically; between 1 and 4 hours, reappears after 24 hours
Description: Skin biopsies were taken and immunohistochemistry for AKT was performed on the sections. […] Staining was measured by quantitative immunohistochemistry with correction for non-specific background staining (p<0.05). Phospho-Ser^473-AKT was not detectable in dermal layer. FIG. 15C summarizes the effects of compound over a 24 hour period as determined by Western blot analysis performed as described above.

[9] = test system: BXPC3 pancreatic tumor cells, MCF-7 breast tumor cells, and A549 nscl lung cancer cells; test: Antitumor activity of alkyl chain analogs in subcutaneous xenografts (FIG. 9); type: in vivo; conditions: 200 mg/kg twice a day for 10 days
[10] = Pharmacokinetics of compound 316, plasma concentrations
[11] = test system: phospho-Ser-AKT in HT-29 xenograft tumors; test: Tumor phospho-Ser-AKT in HT-29 xenografts; type: in vivo, scid mice
Description: (§5) AKT and phospo-Ser-AKT values are the mean of 4 mice and bars are S.E., *p<0.05, **p<0.01. Additionally, 24 hours after administration there was an unexpected significant decrease in the apparent total AKT concentration compared to an actin loading control.

[12] = test system: phospho-Ser473 AKT in NIH3T3 cells; test: Cellular AKT inhibition, phospho-Ser473 AKT, NIH3T3 cells; type: cell-based; conditions: mouse NIH3T3, phospho-Ser473 AKT
Description: (§6) AKT activity was measured by Western blotting using anti-[…] AKT antibody. Downstream targets of AKT were detected also by Western blotting using specific anti-phospho antibodies and anti-actin was used as a loading control.

[13] = test system: phospho-Ser473-AKT in HT-29 cells; test: Cellular AKT inhibition, Western blot phospho-Ser473-AKT, HT-29 cells; type: cell-based; conditions: human HT-29 colon cancer cells
Description: as §1, §6

[14] = test system: HT-29 colon cancer xenografts; test: Antitumor activity, HT-29 colon cancer xenografts; type: in vivo, scid mice; conditions: orally for 5 days, daily dose 250 mg/kg
Description: as §5

HT-29 cells [15] = test: Cell survival / cytotoxicity, MTT assay, HT-29 cells; type: cell-based, human; conditions: HT-29 cells; NI = not inhibitory; read-out: Cytotoxicity (IC50 μM)
PH domain of PDK1 = PH domain of PDK1 (Homo sapiens (Human), UniProt O15530); test: SPR direct binding to PDK1 PH domain; conditions: NB = no measurable binding, read-out: PDK1 PH mKD
PH domain of PDK1, sequence (O15530 459-550): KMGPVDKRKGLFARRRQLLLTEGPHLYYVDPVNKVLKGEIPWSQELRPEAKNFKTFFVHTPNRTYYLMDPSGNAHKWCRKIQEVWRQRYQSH
Description: as §2

HT-29 cells [16] = test: Metabolic stability under cell culture conditions (incubation with HT-29 cells); type: in vitro ADME, human; conditions: for Metabolic half life: incubating with HT-29 cells at maximum DMEM concentration at 37° C.
From the text: Compound 6 was too insoluble to obtain data.

Solubility = type: physicochemical
IRS1 PH domain = IRS1 PH domain (Homo sapiens (Human), UniProt P35568); test: SPR direct binding to IRS1 PH domain; conditions: NB = no measurable binding, read-out: IRS1 PH mKD
IRS1 PH domain, sequence (P35568 12-115): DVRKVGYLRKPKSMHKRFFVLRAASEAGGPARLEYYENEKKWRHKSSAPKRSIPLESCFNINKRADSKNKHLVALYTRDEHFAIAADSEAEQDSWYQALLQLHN
Description: as §2

## CC(=O)Nc1ccc(S(=O)(=O)Nc2nncs2)cc1 [Compound 102, N-(4-(N-1,3,4-Thiadiazol-2-ylsulfamoyl)phenyl)acetamide]
[1]
  Apoptosis at 20 μmol/L: 6.8 ± 0.9/ %
[2]
  Apoptosis at 20 μmol/L: 10.3 ± 2.1%
AKT PH domain
  KD: did not appear to bind directly
[3]
  IC50: > 50 µM
[4]
  IC50: > 50 µM

## CCCCCCCCCCCCc1ccc(S(=O)(=O)Nc2nncs2)cc1 [Compound 104, 4-Dodecyl-N-(1,3,4-thiadiazol-2-yl)benzenesulfonamide]
[1]
  Apoptosis at 20 μmol/L: 40.0 ± 2.9/ %
A549 nsc lung cancer
  Growth rate mm^3/10 days: 182 ± 47 mm^3/10 days
  T/C %: 44.1%
HaCat-II,4 cells
  apoptosis: 60%
PC3 prostate cancer
  Growth rate mm^3/10 days: 470 ± 121 mm^3/10 days
  T/C %: 60.3%
[2]
  Apoptosis at 20 μmol/L: 31.3 ± 1.6%
BxPC-3 pancreatic cancer; 100 mg/kg BID × 10 D
  Growth rate mm^3/10 days: 181 ± 52 mm^3/10 days
  T/C %: 64.8%
BxPC-3 pancreatic cancer; 125 mg/kg BID × 5 D
  Growth rate mm^3/10 days: 67 ± 35 mm^3/10 days
  T/C %: 29.4%
BxPC-3 pancreatic cancer; 200 mg/kg BID × 10 D
  Growth rate mm^3/10 days: 77 ± 44 mm^3/10 days
  T/C %: 27.6%
BxPC-3 pancreatic cancer; 250 mg/kg BID × 5 D
  Growth rate mm^3/10 days: 46 ± 53 mm^3/10 days
  T/C %: 20.1%
[5]
  plasma concentration: a peak corresponding to compound 104 was detected in the plasma
HaCaT cells
  apoptosis: 80%
[6]
  toxicity: not toxic
SKOV-3 ovarian cancer
  Growth rate mm^3/10 days: 122 ± 16 mm^3/10 days
  T/C %: 28.3%
MCF-7 breast cancer; 100 mg/kg BID × 10 D
  Growth rate mm^3/10 days: 383 ± 139 mm^3/10 days
  T/C %: 93.4%
MCF-7 breast cancer; 200 mg/kg BID × 10 D
  Growth rate mm^3/10 days: 156 ± 30 mm^3/10 days
  T/C %: 38.0%
[7]
  GSK3β and p70S6K phosphorylation: inhibited in a dose-dependent manner
[8]
  Total Akt staining in skin: decreased significantly overtime

## CCCCc1ccc(S(=O)(=O)Nc2nncs2)cc1 [Compound 155, 4-Butyl-N-(1,3,4-thiadiazol-2-yl)benzenesulfonamide]
[9]
  antitumor activity: inactive

## CC1=NN(C(=O)c2ccc(Cl)cc2)C(=O)C1/N=N/c1ccc(S(=O)(=O)Nc2ncccn2)cc1 (centres unmarked) [Compound 316, (E)-4-((1-(4-chlorobenzoyl)-3-methyl-5-oxo-4,5-dihydro-1H-pyrazol-4-yl)diazenyl)-N-(pyrimidin-2-yl)benzenesulfonamide]
Toxicity of compound 316; five daily doses of 250 mg/kg i.p.
  toxicity, repeated dose: moderate neutropenia but no other sign of toxicity
Toxicity of compound 316; single dose of up to 250 mg/kg, preliminary studies
  toxicity, single dose: no toxicity
[10]; 250 mg/kg
  elimination: eliminated relatively rapidly over about a 24 hr period
[10]; single dose 250 mg/kg i.p.
  peak plasma concentration: 1.4 µM
[10]; single dose 250 mg/kg oral
  peak plasma concentration: 0.6 µM
[11]; 4 hours after a single 250 mg/kg dose
  tumor phospho-Ser-AKT: inhibition of tumor phospho-Ser-AKT was observed
[11]; 24 hours after a single 250 mg/kg dose
  tumor phospho-Ser-AKT: appears to lost
[12]
  IC50: 4 µM
[13]
  IC50: 13 µM
[14]
  antitumor activity: no activity

## CC1=NN(C(=O)c2ccc(C(C)(C)C)cc2)C(=O)C1/N=N/c1ccc(S(=O)(=O)Nc2ncccn2)cc1 (centres unmarked) [Compound 332]
HT-29 cells [15]
  IC50: 25 µM
PH domain of PDK1
  Kd: 3.57 µM
HT-29 cells [16]
  Metabolic half life: 1.52 h
Solubility
  Solubility: 28.6 µM (≈ 14.9 µg/mL)
[12]
  IC50: > 20 µM
[13]
  IC50: > 20 µM

## CC1=NN(C(=O)c2ccc(N)cc2)C(=O)C1/N=N/c1ccc(S(=O)(=O)Nc2ncccn2)cc1 (centres unmarked) [Compound 333]
HT-29 cells [16]
  Metabolic half life: >8 h
HT-29 cells [16]; over the time period studied
  stability under cell culture conditions: did not appear to breakdown
IRS1 PH domain
  Kd: 0.14 ± 0.02 µM
Solubility
  Solubility: 12.9 µM (≈ 6.17 µg/mL)
[13]
  IC50: > 20 µM

## CC1=NN(C(=O)c2ccc(O)cc2)C(=O)C1/N=N/c1ccc(S(=O)(=O)Nc2ncccn2)cc1 (centres unmarked) [Compound 360]
PH domain of PDK1
  Kd: 0.42 µM
HT-29 cells [16]
  Metabolic half life: 2.3 h
IRS1 PH domain
  Kd: 1.74 ± 0.41 µM
Solubility
  Solubility: 13.1 µM (≈ 6.28 µg/mL)
[12]
  IC50: 5 µM
[13]
  IC50: > 20 µM
